Experimental findings from patent US20170121322A1, “BET-PROTEIN INHIBITING 3,4-DIHYDROPYRIDO[2,3-B]PYRAZINONES WITH META-SUBSTITUTED AROMATIC AMINO- OR ETHER GROUPS” (Bayer Pharma Aktiengesellschaft, priority 2014, published 2017) are described below.

The subject of one assay is MOLM-13 cells. The assay can be described thus: Cell proliferation assay MOLM-13, method 1 (alamarBlue). Format: cell-based. Particulars: Homo sapiens, acute myeloid leukaemia cells, 4000 cells/well, 96-well, 96 hours. The protocol:
In accordance with the invention, the ability of the substances to inhibit cell proliferation was determined. Cell viability was determined by means of the alamarBlue® reagent (Invitrogen) in a Victor X3 Multilabel Reader (Perkin Elmer). The excitation wavelength was 530 nm and the emission wavelength […].
The MOLM-13 cells (DSMZ, ACC 554) were seeded at a concentration of 4000 cells/well in 100 μl of growth medium (RPMI1640, 10% FCS) on 96-well microtitre plates (method 1).
After overnight incubation at 37° C., the fluorescence values (CI values) were determined. Then the plates were treated with various substance dilutions (1E-5 M, 3E-6 M, 1E-6 M, 3E-7 M, 1E-7 M, 3E-8 M, 1E-8 M) and incubated at 37° C. over 96 hours (MOLM-13, B16F10, CHL-1 cells) or 120 hours (MOLP-8 cells). Subsequently, the fluorescence values were determined (CO values). For the data analysis, the CI values were subtracted from the CO values and the results were compared between cells which had been treated with various dilutions of the substance or only with buffer solution. The IC50 values (substance concentration needed for 50% inhibition of cell proliferation) were calculated therefrom.
The substances were tested in the cell lines in Table 2, which represent the indications specified by way of example: […]
On the technique in general: Resazurin is reduced to fluorescent resorufin, in cell work by metabolically active cells.

Assay [1] deals with T1, BRD4 bromo domain 1 [BRD4(1)] (Homo sapiens, UniProt O60885).
T1 construct: N-terminally His6-tagged BRD4(1) (amino acids 67-152); made in house; host or cells: E. coli
The assay can be described thus: BRD4(1)/acetylated peptide H4 TR-FRET binding assay. The conditions noted are these: His6-BRD4(1) (aa 67-152) vs acetylated histone H4 peptide. In outline:
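His6-tagged BRD4(1) (aa 67-152, E. coli-expressed; 10 nM) pre-incubated with compound (0.1 nM–20 μM, duplicates) for 10 min at 22 °C in HEPES pH 7.5 buffer, then biotinylated tetra-acetylated H4 peptide with TR-FRET reagents added. After 1 h at 22 °C and ≥3 h at 4 °C, the 665/620 nm ratio was read; IC50 from a 4-parameter fit.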
(In general: In TR-FRET formats the signal depends on donor and acceptor labels being close together.)

Regarding `COc1ccc(S(=O)(=O)C2CC2)cc1Nc1ccc2c(n1)N(C1CCN(C)CC1)[C@H](C)C(=O)N2C` [Example 12, (3R)-6-{[5-(Cyclopropylsulphonyl)-2-methoxyphenyl]amino}-1,3-dimethyl-4-(1-methylpiperidin-4-yl)-3,4-dihydropyrido[2,3-b]pyrazin-2(1H)-one], the IC50 – broadly, the concentration that inhibits the measured activity by half – amounted to 0.02 µM in the assay on MOLM-13 cells and 0.019 µM in assay [1].
